Test results published in ChEMBL document CHEMBL1156023, “Grassystatins A-C from marine cyanobacteria, potent cathepsin E inhibitors that reduce antigen presentation” (J Med Chem, 2009).
pIC50: −log10 of the molar value. Square brackets hold non-standard residues; d marks the D form. Peptide text beside a SMILES is read from it. Hmp(2R,3S) = CC[C@H](C)[C@@H](O)C(=O)O; Sta = CC(C)C[C@H](N)[C@@H](O)CC(=O)O; dNMeF = CN[C@H](Cc1ccccc1)C(=O)O; NMeQ = CN[C@@H](CCC(N)=O)C(=O)O

How the values were obtained:
[1] = target: Disintegrin and metalloproteinase domain-containing protein 10 (Homo sapiens, UniProt O14672); assay: Inhibition of ADAM10
[2] = target: Disintegrin and metalloproteinase domain-containing protein 9 (Homo sapiens, UniProt Q13443); assay: Inhibition of ADAM9
[3] = target: Disintegrin and metalloproteinase domain-containing protein 17 (Homo sapiens, UniProt P78536)
Disintegrin and metalloproteinase domain-containing protein 17, sequence (P78536 whole entry, the tested form may be a part): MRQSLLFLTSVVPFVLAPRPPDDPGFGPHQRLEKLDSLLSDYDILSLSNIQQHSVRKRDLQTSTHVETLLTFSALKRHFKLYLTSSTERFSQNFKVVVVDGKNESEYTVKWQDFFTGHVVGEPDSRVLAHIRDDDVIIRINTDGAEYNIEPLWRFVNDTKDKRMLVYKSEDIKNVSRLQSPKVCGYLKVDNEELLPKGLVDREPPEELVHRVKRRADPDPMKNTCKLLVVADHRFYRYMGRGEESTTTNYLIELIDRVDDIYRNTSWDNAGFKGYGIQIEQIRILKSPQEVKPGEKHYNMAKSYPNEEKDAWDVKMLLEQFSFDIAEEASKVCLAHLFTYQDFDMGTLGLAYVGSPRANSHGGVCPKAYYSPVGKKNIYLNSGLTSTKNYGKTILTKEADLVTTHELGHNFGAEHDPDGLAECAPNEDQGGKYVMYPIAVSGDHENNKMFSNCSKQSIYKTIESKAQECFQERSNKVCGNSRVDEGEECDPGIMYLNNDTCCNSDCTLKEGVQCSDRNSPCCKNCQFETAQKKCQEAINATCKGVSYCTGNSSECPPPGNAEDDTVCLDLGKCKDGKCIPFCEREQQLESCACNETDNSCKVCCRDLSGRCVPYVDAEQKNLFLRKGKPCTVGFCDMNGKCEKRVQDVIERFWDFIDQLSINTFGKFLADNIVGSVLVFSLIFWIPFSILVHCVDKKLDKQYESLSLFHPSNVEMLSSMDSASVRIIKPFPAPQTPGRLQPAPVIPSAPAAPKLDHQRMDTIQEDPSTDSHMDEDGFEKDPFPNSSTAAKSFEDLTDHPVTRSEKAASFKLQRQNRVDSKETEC

Disintegrin and metalloproteinase domain-containing protein 9, sequence (Q13443 whole entry, the tested form may be a part): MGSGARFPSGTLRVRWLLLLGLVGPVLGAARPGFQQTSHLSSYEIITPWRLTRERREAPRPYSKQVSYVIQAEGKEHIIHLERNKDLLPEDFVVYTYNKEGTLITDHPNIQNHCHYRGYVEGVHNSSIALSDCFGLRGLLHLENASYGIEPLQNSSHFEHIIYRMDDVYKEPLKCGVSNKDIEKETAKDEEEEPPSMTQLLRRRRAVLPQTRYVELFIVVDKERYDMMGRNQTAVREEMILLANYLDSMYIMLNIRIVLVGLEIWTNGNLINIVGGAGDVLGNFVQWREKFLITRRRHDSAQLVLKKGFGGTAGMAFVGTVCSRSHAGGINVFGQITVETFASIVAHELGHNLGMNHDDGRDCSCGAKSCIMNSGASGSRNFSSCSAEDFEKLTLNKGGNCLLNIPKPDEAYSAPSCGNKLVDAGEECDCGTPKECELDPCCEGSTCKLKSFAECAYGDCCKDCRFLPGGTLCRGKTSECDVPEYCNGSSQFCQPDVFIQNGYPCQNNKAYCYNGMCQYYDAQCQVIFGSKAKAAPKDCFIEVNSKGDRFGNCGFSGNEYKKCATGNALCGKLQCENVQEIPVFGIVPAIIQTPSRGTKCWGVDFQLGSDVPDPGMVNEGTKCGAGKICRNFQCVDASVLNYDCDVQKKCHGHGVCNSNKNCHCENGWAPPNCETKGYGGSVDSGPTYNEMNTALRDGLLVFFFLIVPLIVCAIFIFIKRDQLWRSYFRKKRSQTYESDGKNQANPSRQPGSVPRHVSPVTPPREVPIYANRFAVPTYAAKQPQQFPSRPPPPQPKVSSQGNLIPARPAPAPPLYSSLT
Disintegrin and metalloproteinase domain-containing protein 10, sequence (O14672 whole entry, the tested form may be a part): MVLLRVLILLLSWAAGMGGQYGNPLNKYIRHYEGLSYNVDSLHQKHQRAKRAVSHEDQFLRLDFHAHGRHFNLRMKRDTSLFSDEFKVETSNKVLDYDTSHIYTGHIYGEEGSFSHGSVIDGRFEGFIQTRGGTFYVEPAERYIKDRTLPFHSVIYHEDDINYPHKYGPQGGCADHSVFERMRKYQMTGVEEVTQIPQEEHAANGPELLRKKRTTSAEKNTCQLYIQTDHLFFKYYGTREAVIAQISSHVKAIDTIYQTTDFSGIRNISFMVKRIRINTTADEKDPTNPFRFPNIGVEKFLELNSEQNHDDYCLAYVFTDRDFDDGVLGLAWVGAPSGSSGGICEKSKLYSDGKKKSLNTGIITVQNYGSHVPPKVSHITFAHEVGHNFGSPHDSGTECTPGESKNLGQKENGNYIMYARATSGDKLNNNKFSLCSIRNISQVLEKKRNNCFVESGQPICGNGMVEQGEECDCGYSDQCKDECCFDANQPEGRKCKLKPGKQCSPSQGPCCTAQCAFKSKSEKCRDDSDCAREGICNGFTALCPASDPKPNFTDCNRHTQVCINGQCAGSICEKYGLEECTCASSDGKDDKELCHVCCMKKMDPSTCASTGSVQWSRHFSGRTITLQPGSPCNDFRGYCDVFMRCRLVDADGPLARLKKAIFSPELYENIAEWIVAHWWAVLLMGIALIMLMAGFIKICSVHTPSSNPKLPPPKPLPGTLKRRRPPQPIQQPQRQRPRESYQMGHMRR

SMILES: CC[C@H](C)[C@H](NC(=O)C[C@H](O)[C@H](CC(C)C)NC(=O)[C@H](CCC(N)=O)N(C)C(=O)[C@H](CC(C)C)NC(=O)[C@H](O)[C@@H](C)CC)C(=O)NCC(=O)N(C)[C@H](Cc1ccccc1)C(=O)N1CCC[C@H]1C(=O)OC [GRASSYSTATIN C] ({Hmp(2R,3S)}-L[NMeQ][Sta]IG[dNMeF]P-OMe)
- pIC50 [1]: < 4.00
- pIC50 [2]: < 4.00

SMILES: CNC(=O)[C@H](Cc1c[nH]c2ccccc12)NC(=O)[C@@H](CC(=O)NO)CC(C)C [ILOMASTAT]
- pIC50 [1]: 6.58
- pIC50 [2]: 7.25
- pIC50 [3]: 7.88
